# Measured values reported in ChEMBL document CHEMBL1151564, “Arylacetamide kappa-selective opioid ligands” (Bioorg Med Chem Lett, 1997).
# Key:
# [1] = Specific binding was evaluated by Phycoerythrin fluorescent labeling of R1EGO mouse thymoma cells; format: functional
# [2] = Percent specific binding was evaluated by Phycoerythrin fluorescent labeling of R1EGO mouse thymoma cells; format: functional
# Mu-type opioid receptor = Mu-type opioid receptor (Cavia porcellus, UniProt P97266); assay: Compound was evaluated for the inhibition of Opioid receptor mu 1 binding to guinea pig brain membranes, using [3H]- DAMGO as radioligand
# Sequence of Mu-type opioid receptor (P97266 whole entry): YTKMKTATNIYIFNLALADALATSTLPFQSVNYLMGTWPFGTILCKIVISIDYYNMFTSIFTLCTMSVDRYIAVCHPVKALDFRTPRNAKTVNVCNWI
# [3] = Nonspecific binding was evaluated by Phycoerythrin fluorescent labeling of R1EGO mouse thymoma cells; format: functional
# [4] = target: Kappa-type opioid receptor (Cavia porcellus, UniProt P41144); assay: Compound was evaluated for the inhibition of Opioid receptor kappa1 binding to guinea pig brain membranes, using 1 nM [3H]- U69,593 as radioligand
# Sequence of Kappa-type opioid receptor (P41144 whole entry): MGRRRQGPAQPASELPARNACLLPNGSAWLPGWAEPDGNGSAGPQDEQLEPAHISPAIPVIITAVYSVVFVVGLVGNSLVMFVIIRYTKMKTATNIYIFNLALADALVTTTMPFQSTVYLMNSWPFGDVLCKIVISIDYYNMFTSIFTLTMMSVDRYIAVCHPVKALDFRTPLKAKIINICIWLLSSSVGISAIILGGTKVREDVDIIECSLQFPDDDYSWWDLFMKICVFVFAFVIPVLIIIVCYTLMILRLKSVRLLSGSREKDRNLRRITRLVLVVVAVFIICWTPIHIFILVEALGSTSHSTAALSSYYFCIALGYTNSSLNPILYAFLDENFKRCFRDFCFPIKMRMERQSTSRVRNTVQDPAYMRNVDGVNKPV
# [5] = Total binding was evaluated by Phycoerythrin fluorescent labeling of R1EGO mouse thymoma cells; format: functional
structure (smiles),measurement,setting,value
CN(C(=O)Cc1ccc(Cl)c(Cl)c1)[C@H](CN1CCCC1)c1cccc(N/C(S)=N/c2ccc(-c3c4ccc(=O)cc-4oc4cc(O)ccc34)c(C(=O)O)c2)c1,Specific binding,[1],57
same,Binding,[2],91%
same,Ki,Mu-type opioid receptor,98 nM
same,Non-specific binding,[3],7
same,Ki,[4],1.4 nM
same,Total binding,[5],64
CC(=O)Nc1cccc([C@H](CN2CCCC2)N(C)C(=O)Cc2ccc(Cl)c(Cl)c2)c1,Ki,Mu-type opioid receptor,1040 nM
same,Ki,[4],17.5 nM
CC(=O)Nc1cccc([C@@H](CN2CCCC2)N(C)C(=O)Cc2ccc(Cl)c(Cl)c2)c1,Ki,Mu-type opioid receptor,8.37 nM
same,Ki,[4],0.0855 nM
CN(C(=O)Cc1ccc(Cl)c(Cl)c1)C(CN1CCCC1)c1cccc(N/C(S)=N/c2ccc(-c3c4ccc(=O)cc-4oc4cc(O)ccc34)c(C(=O)O)c2)c1 (stereo unspecified),Ki,Mu-type opioid receptor,176 nM
same,Ki,[4],8.2 nM
CN(C(=O)Cc1ccc(Cl)c(Cl)c1)[C@@H](CN1CCCC1)c1cccc(N/C(S)=N/c2ccc(-c3c4ccc(=O)cc-4oc4cc(O)ccc34)c(C(=O)O)c2)c1,Ki,Mu-type opioid receptor,1190 nM
same,Non-specific binding,[3],-5
same,Ki,[4],139 nM
same,Total binding,[5],12
